Laboratory results: ChEMBL document CHEMBL3991601, “The target landscape of clinical kinase drugs” (Science, 2017)
Activity calls are given as the source filed them.

Tests used:
[1] = target: T1, Adenine phosphoribosyltransferase (Homo sapiens, UniProt P07741)
T1 sequence (P07741 whole entry): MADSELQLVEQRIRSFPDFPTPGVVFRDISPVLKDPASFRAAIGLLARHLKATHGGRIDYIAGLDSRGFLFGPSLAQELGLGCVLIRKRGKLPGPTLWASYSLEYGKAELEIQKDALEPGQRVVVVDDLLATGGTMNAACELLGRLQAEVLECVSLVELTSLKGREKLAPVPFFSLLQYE

[2] = target: T2, Breakpoint cluster region protein (Homo sapiens, UniProt P11274)
T2 sequence (P11274 whole entry): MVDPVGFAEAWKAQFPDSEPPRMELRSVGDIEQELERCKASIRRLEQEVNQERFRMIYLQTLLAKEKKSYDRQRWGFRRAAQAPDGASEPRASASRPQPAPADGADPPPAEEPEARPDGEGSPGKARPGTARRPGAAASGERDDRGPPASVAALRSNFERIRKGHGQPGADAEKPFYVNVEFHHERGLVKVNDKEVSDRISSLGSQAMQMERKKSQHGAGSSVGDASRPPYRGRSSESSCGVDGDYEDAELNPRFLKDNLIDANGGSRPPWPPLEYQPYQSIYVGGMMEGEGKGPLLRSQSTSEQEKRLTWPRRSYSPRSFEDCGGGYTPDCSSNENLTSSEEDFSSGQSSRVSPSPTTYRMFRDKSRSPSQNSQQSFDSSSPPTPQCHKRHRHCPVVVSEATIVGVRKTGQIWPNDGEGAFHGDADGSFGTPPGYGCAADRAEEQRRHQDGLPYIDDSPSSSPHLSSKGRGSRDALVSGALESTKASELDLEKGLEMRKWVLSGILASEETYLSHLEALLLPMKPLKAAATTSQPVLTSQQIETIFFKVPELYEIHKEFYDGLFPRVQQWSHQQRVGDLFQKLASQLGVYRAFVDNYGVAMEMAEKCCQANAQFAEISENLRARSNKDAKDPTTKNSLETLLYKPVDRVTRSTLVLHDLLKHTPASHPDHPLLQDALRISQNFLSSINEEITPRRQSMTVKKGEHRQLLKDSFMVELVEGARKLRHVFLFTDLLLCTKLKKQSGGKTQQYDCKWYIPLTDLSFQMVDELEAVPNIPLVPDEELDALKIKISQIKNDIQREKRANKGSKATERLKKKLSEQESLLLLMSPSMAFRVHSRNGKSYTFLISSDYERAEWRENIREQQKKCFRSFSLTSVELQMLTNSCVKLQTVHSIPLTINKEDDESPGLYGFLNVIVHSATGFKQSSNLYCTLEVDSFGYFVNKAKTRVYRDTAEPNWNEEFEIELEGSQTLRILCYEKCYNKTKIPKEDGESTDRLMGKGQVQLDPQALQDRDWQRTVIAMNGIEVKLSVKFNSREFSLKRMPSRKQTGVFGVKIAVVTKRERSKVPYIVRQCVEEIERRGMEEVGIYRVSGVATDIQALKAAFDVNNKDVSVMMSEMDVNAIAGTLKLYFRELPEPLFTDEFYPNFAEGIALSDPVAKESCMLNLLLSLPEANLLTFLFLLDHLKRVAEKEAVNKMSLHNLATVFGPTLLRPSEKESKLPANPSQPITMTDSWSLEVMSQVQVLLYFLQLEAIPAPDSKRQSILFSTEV

[3] = target: T3, Probable ATP-dependent RNA helicase DDX6 (Homo sapiens, UniProt P26196)
T3 sequence (P26196 whole entry): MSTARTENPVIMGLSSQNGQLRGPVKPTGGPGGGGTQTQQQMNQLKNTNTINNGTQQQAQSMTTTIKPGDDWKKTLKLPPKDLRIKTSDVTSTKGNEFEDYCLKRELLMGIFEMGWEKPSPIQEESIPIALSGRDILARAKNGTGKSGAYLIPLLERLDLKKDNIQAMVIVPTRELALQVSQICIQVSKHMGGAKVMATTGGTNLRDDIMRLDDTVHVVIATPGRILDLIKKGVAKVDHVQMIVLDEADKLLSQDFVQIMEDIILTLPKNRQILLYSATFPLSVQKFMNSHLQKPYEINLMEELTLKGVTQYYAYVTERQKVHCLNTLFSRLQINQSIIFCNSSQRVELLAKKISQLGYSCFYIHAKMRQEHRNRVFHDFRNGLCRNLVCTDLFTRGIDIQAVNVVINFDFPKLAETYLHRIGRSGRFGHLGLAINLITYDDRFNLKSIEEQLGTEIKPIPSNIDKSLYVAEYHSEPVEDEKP

Heme oxygenase 2 = target: T4, Heme oxygenase 2 (Homo sapiens, UniProt P30519)
T4 sequence (P30519 whole entry): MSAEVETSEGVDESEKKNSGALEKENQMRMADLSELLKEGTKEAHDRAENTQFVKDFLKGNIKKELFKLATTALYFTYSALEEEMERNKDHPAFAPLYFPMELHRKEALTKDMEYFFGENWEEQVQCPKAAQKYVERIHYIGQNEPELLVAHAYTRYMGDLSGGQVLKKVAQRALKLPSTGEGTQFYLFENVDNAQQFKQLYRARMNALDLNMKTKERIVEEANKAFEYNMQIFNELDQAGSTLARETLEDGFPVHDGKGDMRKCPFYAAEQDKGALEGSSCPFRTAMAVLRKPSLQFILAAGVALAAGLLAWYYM

[4] = target: T5, Serine/threonine-protein kinase TBK1 (Homo sapiens, UniProt Q9UHD2)
T5 sequence (Q9UHD2 whole entry): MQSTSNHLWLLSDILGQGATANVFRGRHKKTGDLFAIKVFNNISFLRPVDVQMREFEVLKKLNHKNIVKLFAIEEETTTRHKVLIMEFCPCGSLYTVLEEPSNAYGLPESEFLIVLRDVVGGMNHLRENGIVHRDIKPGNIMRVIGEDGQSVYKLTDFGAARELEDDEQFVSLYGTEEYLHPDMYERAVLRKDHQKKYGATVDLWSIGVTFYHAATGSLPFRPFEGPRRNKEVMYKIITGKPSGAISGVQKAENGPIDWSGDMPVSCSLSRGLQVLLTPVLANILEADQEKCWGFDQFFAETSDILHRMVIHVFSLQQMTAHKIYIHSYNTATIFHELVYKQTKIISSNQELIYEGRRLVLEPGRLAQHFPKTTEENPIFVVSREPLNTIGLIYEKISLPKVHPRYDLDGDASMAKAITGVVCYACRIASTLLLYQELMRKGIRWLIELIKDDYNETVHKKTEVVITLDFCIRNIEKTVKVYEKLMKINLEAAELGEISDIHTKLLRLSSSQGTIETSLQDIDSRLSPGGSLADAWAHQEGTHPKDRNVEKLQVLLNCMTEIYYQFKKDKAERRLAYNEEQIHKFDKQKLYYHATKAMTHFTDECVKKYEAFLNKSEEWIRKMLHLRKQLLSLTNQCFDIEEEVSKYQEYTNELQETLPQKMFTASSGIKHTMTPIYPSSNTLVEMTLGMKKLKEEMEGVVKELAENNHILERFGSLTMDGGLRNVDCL

Measured: Kd
Also: in the data inactive means no Kd found up to 30 µM.

Cn1cc(-c2[nH]c3cc(NC(=O)[C@H](N)C4CCCCC4)cc4c3c2C=NNC4=O)cn1
active: [2] 1.11 µM
inactive: [1] > 30 µM | [3] > 30 µM | Heme oxygenase 2 > 30 µM | [4] > 30 µM

Cc1c(NC(=O)OC[C@@H]2COCCN2)cn2ncnc(Nc3ccc4c(cnn4Cc4cccc(F)c4)c3)c12 [AC-480]
inactive: [1] > 30 µM | [2] > 30 µM | [3] > 30 µM | Heme oxygenase 2 > 30 µM | [4] > 30 µM

CCc1cc2c(cc1N1CCC(N3CCOCC3)CC1)C(C)(C)c1[nH]c3cc(C#N)ccc3c1C2=O [ALECTINIB]
inactive: [1] > 30 µM | [2] > 30 µM | [3] > 30 µM | Heme oxygenase 2 > 30 µM | [4] > 30 µM

COc1ccc2c(OCc3nnc4ccc(-c5ccccc5)nn34)ccnc2c1 [AMG-208]
inactive: [1] > 30 µM | [2] > 30 µM | [3] > 30 µM | Heme oxygenase 2 > 30 µM | [4] > 30 µM

S=C(NCc1ccc2c(c1)OCO2)N1CCN(c2ncnc3c2oc2ccccc23)CC1 [AMUVATINIB]
inactive: [1] > 30 µM | [2] > 30 µM | [3] > 30 µM | Heme oxygenase 2 > 30 µM | [4] > 30 µM

NC[C@@](O)(c1ccc(Cl)cc1)c1ccc(-c2cn[nH]c2)cc1 [AT-13148]
inactive: [1] > 30 µM | [2] > 30 µM | [3] > 30 µM | Heme oxygenase 2 > 30 µM | [4] > 30 µM

Cc1cc(Nc2nc(N[C@@H](C)c3ncc(F)cn3)ncc2Cl)n[nH]1 [AZD-1480]
inactive: [1] > 30 µM | [2] > 30 µM | [3] > 30 µM | Heme oxygenase 2 > 30 µM | [4] > 30 µM

COc1ccc(-c2ccc3ncc4c(c3c2)n(-c2ccc(N3CCNCC3)c(C(F)(F)F)c2)c(=O)n4C)cn1 [BGT-226 FREE BASE]
inactive: [1] > 30 µM | [2] > 30 µM | [3] > 30 µM | Heme oxygenase 2 > 30 µM | [4] > 30 µM

COc1cccc(Nc2ncnn3ccc(CN4CC[C@@H](N)[C@H](O)C4)c23)c1 [BMS-690514]
inactive: [1] > 30 µM | [2] > 30 µM | Heme oxygenase 2 > 30 µM | [4] > 30 µM

CCOc1ccn(-c2ccc(F)cc2)c(=O)c1C(=O)Nc1ccc(Oc2ccnc(N)c2Cl)c(F)c1 [BMS-777607]
inactive: [1] > 30 µM | [2] > 30 µM | [3] > 30 µM | Heme oxygenase 2 > 30 µM | [4] > 30 µM

COc1cc2nccc(Oc3ccc(NC(=O)C4(C(=O)Nc5ccc(F)cc5)CC4)cc3)c2cc1OC [CABOZANTINIB]
active: [2] 0.342 µM
inactive: [1] > 30 µM | [3] > 30 µM | Heme oxygenase 2 > 30 µM | [4] > 30 µM

c1cc(OCCN2CCCCC2)cc(-c2n[nH]c3ccc(-c4nc[nH]n4)cc23)c1 [CC-401]
inactive: [1] > 30 µM | [2] > 30 µM | [3] > 30 µM | Heme oxygenase 2 > 30 µM | [4] > 30 µM

CC1(COc2ccc3c(c2)ncn3-c2ccc3cccc(N4CCC(N)CC4)c3n2)COC1 [CRENOLANIB]
0.029 µM: [1]
inactive: [2] > 30 µM | [3] > 30 µM | Heme oxygenase 2 > 30 µM | [4] > 30 µM

CC[C@@](C)(Nc1ccnc(-c2c[nH]c3ncccc23)n1)C(=O)NCC(F)(F)F [DECERNOTINIB]
inactive: [1] > 30 µM | [2] > 30 µM | [3] > 30 µM | Heme oxygenase 2 > 30 µM | [4] > 30 µM

CNC(=O)c1ccc(Nc2ncc(C(F)(F)F)c(NCc3nccnc3N(C)S(C)(=O)=O)n2)cc1 [DEFACTINIB]
inactive: [1] > 30 µM | [2] > 30 µM | [3] > 30 µM | Heme oxygenase 2 > 30 µM | [4] > 30 µM

COc1cc(Nc2ncc(F)c(Nc3ccc4c(n3)N(COP(=O)(O)O)C(=O)C(C)(C)O4)n2)cc(OC)c1OC [FOSTAMATINIB]
inactive: [1] > 30 µM | [2] > 30 µM | [3] > 30 µM | Heme oxygenase 2 > 30 µM | [4] > 30 µM

O=S(=O)(c1cccc2c(O)nccc12)N1CCCNCC1 [HYDROXYFASUDIL]
inactive: [1] > 30 µM | [2] > 30 µM | [3] > 30 µM | Heme oxygenase 2 > 30 µM | [4] > 30 µM

C#Cc1cccc(Nc2ncnc3cc4c(cc23)OCCOCCOCCO4)c1 [ICOTINIB]
inactive: [1] > 30 µM | [2] > 30 µM | [3] > 30 µM | Heme oxygenase 2 > 30 µM | [4] > 30 µM

COc1cc2ncnc3c2cc1OCCCCCN(C)Cc1ccc(Br)cc1N3 [JNJ-26483327]
inactive: [1] > 30 µM | [2] > 30 µM | [3] > 30 µM | Heme oxygenase 2 > 30 µM | [4] > 30 µM

Cc1ccc(C(=O)Nc2ccc(Oc3cc4cnn(C)c4cc3-c3cn[nH]c3)c(F)c2)c(=O)n1-c1ccc(F)cc1 [MERESTINIB]
inactive: [1] > 30 µM | [2] > 30 µM | [3] > 30 µM | Heme oxygenase 2 > 30 µM | [4] > 30 µM

CC(C)CC(=O)Nc1[nH]nc2c1CN(C(=O)C1CCN(C)CC1)C2(C)C [PHA-793887]
inactive: [1] > 30 µM | [2] > 30 µM | [3] > 30 µM | [4] > 30 µM

Cn1cnc2c(F)c(Nc3ccc(Br)cc3Cl)c(C(=O)NOCCO)cc21 [SELUMETINIB]
inactive: [1] > 30 µM | [2] > 30 µM | [3] > 30 µM | Heme oxygenase 2 > 30 µM
